Where a SMILES comes first, the peptide text is derived from it. The star is where a group is joined. Boc = CC(C)(C)OC(=O)*

These results are taken from ChEMBL document CHEMBL1141197, “Interaction of papain-like cysteine proteases with dipeptide-derived nitriles” (J Med Chem, 2005).

In one assay the target is Cathepsin S (Homo sapiens, UniProt P25774). Nature of the assay: Inhibitory activity against human cathepsin S using Z-Val-Val-Arg-NHMec substrate.
The target in a further assay is Procathepsin L (Bos taurus, UniProt P25975). Nature of the assay: Inhibitory activity against bovine cathepsin L using Z-Phe-Arg-NHMec substrate.
Chain of Procathepsin L (P25975 whole entry): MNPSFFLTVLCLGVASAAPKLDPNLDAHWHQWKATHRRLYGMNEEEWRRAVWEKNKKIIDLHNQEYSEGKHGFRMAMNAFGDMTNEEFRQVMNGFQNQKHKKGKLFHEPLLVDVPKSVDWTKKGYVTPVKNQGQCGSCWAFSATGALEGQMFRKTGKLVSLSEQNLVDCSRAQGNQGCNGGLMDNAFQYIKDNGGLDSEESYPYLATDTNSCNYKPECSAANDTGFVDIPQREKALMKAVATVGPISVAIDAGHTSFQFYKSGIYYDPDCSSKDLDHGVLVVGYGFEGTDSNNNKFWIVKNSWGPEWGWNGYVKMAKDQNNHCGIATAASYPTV
Another assay deals with T1, Cathepsin K (Homo sapiens, UniProt P43235).
T1 sequence (P43235 whole entry): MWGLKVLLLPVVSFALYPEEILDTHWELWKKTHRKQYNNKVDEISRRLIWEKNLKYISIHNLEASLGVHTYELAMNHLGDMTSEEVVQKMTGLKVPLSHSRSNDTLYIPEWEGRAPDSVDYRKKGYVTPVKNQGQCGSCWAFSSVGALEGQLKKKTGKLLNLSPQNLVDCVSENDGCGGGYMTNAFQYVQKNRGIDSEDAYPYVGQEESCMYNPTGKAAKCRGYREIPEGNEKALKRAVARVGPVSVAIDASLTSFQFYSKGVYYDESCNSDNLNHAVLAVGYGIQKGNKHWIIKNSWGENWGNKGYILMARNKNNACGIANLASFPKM
Kind of assay: Inhibitory activity against human cathepsin K using Z-Leu-Arg-NHMec substrate.

In another assay the target is T2, Papain (Carica papaya, UniProt P00784).
T2 sequence (P00784 whole entry): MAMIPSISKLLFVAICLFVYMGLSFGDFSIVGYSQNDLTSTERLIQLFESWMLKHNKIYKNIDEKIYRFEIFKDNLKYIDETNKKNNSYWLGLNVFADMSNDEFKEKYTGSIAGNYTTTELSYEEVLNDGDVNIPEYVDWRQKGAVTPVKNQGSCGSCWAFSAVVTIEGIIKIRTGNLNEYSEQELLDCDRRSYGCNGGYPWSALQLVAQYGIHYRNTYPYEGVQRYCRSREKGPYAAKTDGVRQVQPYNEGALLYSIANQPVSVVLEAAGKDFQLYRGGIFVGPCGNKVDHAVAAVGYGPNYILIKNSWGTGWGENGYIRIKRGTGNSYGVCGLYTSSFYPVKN
Kind of assay: Inhibitory activity against papain using Z-Phe-Arg-NHNp substrate.

Chain of Cathepsin S (P25774 whole entry): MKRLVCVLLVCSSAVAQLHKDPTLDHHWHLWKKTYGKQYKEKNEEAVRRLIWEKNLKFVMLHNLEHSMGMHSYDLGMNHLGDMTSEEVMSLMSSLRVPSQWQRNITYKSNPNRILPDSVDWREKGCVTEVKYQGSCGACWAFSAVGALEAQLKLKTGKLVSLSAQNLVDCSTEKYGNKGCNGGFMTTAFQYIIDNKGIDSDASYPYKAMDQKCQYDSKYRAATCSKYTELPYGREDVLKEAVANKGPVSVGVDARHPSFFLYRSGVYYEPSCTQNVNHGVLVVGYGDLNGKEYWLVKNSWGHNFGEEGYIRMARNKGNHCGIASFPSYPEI

What is called Ki is the dissociation constant of the complex between target and ligand, obtained from inhibition or displacement. A high value points to weaker binding. `C#CCNC(=O)[C@H](Cc1ccccc1)NC(=O)OC(C)(C)C`: the Ki at Cathepsin S is above 100 µM; on Procathepsin L, above 1000 µM; on Cathepsin K, above 1000 µM; on Papain, 497 µM.
As for `CC(C)(C)OC(=O)N[C@@H](Cc1ccc(O)cc1)C(=O)NCC#N`, the Ki was found to be 0.97 µM on Cathepsin S, 0.4 µM on Procathepsin L, 30 µM at Cathepsin K and 0.19 µM at Papain.
On the same counts, the results for `CCCC[C@H](NC(=O)OC(C)(C)C)C(=O)NCC#N` are 0.55 µM, 19 µM, 1.27 µM and 1.57 µM.
On the same counts, the results for `CC(C)C[C@H](NC(=O)OCc1ccccc1)C(=O)NCC#N` are 0.13 µM, 0.75 µM, 0.035 µM and 3.1 µM.
The corresponding values for `CC(C)(C)OC(=O)N[C@@H](Cc1ccccc1-c1ccccc1)C(=O)NCC#N` are above 100 µM, above 100 µM, above 100 µM and 299 µM.
On to `CC(C)(C)OC(=O)N[C@@H](Cc1ccco1)C(=O)NCC#N`, for which the Ki on Cathepsin S came to 2.8 µM; at Procathepsin L it was 14 µM; at Cathepsin K, 4.1 µM; at Papain it was 1.2 µM.
Take `CC(C)(C)OC(=O)N[C@H](Cc1ccccc1)C(=O)NCC#N`: the figures for the Ki at Cathepsin S, at Cathepsin K and at Papain were 46 µM, above 100 µM and 41 µM, respectively.
Consider `CC(C)(C)OC(=O)N[C@@H](Cc1ccccc1)C(=O)NCC#N`, for which the Ki on Cathepsin S was 0.62 µM; on Cathepsin K it was 4.1 µM; on Papain, 0.26 µM.
Regarding `CC(C)(C)OC(=O)N[C@@H](Cc1ccc(-c2ccccc2)cc1)C(=O)NCC#N`, the Ki on Cathepsin S was 0.44 µM; on Procathepsin L it was 0.34 µM; at Cathepsin K it was 16 µM; at Papain, 0.016 µM.
In the case of `CC(C)(C)OC(=O)N[C@@H](Cc1c(F)c(F)c(F)c(F)c1F)C(=O)NCC#N`, the inhibition constant (Ki) was 15 µM on Cathepsin S, 2.5 µM on Procathepsin L, above 100 µM at Cathepsin K and 14 µM on Papain.
Turning to `CC(=O)N[C@@H](Cc1ccccc1)C(=O)NCC#N`, the Ki stood at 1.4 µM on Cathepsin S, 5.8 µM on Procathepsin L, 7.5 µM on Cathepsin K and 0.38 µM at Papain.
Take `CC(C)(C)OC(=O)N[C@@H](Cc1ccc(Br)cc1)C(=O)NCC#N`: the Ki at Cathepsin S amounted to 0.19 µM; on Procathepsin L it was 0.63 µM; at Cathepsin K, 28 µM; at Papain, 0.029 µM.
Take `CC(=O)CNC(=O)[C@H](Cc1ccccc1)NC(=O)OC(C)(C)C`: the inhibition constant (Ki) at Cathepsin S came to 2.1 µM; at Procathepsin L, 2.3 µM; on Cathepsin K it was 2.1 µM; at Papain, 187 µM.
With `CC(C)(C)OC(=O)N[C@@H](COCc1ccccc1)C(=O)NCC#N`, the Ki on Cathepsin S is 2.2 µM; on Procathepsin L, 33 µM; on Cathepsin K it was above 100 µM; at Papain it was 11 µM.
The corresponding values for `CC(C)(C)OC(=O)N[C@@H](Cc1cccc2ccccc12)C(=O)NCC#N` are 1.3 µM, 1.7 µM, 66 µM and 28 µM.
The corresponding values for `CN(CC#N)C(=O)[C@H](Cc1ccccc1)NC(=O)OC(C)(C)C` are above 100 µM, above 100 µM, above 100 µM and above 100 µM.
The corresponding values for `CC(C)(C)OC(=O)N[C@@H](Cc1cccc(F)c1)C(=O)NCC#N` are 0.86 µM, 0.7 µM, 6.3 µM and 0.5 µM.
Take `CC(C)(C)OC(=O)N[C@@H](Cc1ccccc1)C(=O)NCC=O` (Boc-Phe-Gly-aldehyde): the Ki at Cathepsin S was found to be 0.025 µM; on Procathepsin L, 0.022 µM; at Cathepsin K, 0.074 µM; at Papain, 0.015 µM.
On the same counts, the results for `N#CCNC(=O)CNS(=O)(=O)c1ccc2ccccc2c1` are 2.5 µM, 25 µM, above 100 µM and 10 µM.
On the same counts, the results for `CC(C)(C)OC(=O)N[C@@H](Cc1ccc(F)cc1)C(=O)NCC#N` are 0.59 µM, 0.64 µM, 13 µM and 0.27 µM.
The corresponding values for `CC(C)C[C@H](NC(=O)OC(C)(C)C)C(=O)NCC#N` are 0.13 µM, 1.2 µM, 0.12 µM and 2 µM.
For the compound `CC(C)(C)OC(=O)N[C@@H](Cc1cccc(Br)c1)C(=O)NCC#N`, the Ki came out at 0.34 µM at Cathepsin S, 0.27 µM on Procathepsin L, 6.5 µM at Cathepsin K and 0.33 µM at Papain.
`CC(C)(C)OC(=O)NN(Cc1ccccc1)C(=O)NCC#N`: the Ki was above 50 µM on Cathepsin S, above 100 µM at Procathepsin L, above 100 µM on Cathepsin K and 725 µM on Papain.
In the case of `CC(C)(C)OC(=O)NCC(=O)NCC#N`, the Ki at Cathepsin S is above 1000 µM; at Procathepsin L, above 1000 µM; on Cathepsin K it was above 1000 µM; on Papain, above 3000 µM.
Regarding `CC(C)(C)OC(=O)N[C@@H](Cc1cccc(-c2ccccc2)c1)C(=O)NCC#N`, the inhibition constant (Ki) at Cathepsin S is 0.27 µM; on Procathepsin L, 0.43 µM; on Cathepsin K, 26 µM; at Papain, 1.2 µM.
On to `CC(C)(C)OC(=O)N[C@H](C(=O)NCC#N)c1ccccc1`, for which the Ki on Cathepsin S amounted to 1.7 µM; at Procathepsin L, 29 µM; at Cathepsin K, 90 µM; on Papain, 83 µM.
On the same counts, the results for `C[C@H](NC(=O)OC(C)(C)C)C(=O)NCC#N` are 292 µM, above 100 µM, 136 µM and 22 µM.
`CCC[C@H](NC(=O)OC(C)(C)C)C(=O)NCC#N`: the Ki at Cathepsin S was 0.9 µM; on Procathepsin L, 22 µM; at Cathepsin K, 1.1 µM; at Papain it was 0.75 µM.
The corresponding values for `CC(C)[C@H](NC(=O)OC(C)(C)C)C(=O)NCC#N` are 6.2 µM, 2.8 µM, 6.5 µM and 2 µM.
On the same counts, the results for `CSCC[C@H](NC(=O)OC(C)(C)C)C(=O)NCC#N` are 0.66 µM, 19 µM, 0.73 µM and 0.65 µM.
As for `CC(C)(C)OC(=O)N[C@@H](CC1CCCCC1)C(=O)NCC#N`, the inhibitory constant (Ki) on Cathepsin S is 0.044 µM; at Procathepsin L, 1.1 µM; at Cathepsin K it was 5.3 µM; at Papain, 2.2 µM.
`CC[C@@H](C)[C@H](NC(=O)OC(C)(C)C)C(=O)NCC#N`: the Ki came out at 4.1 µM on Cathepsin S, 4.9 µM on Procathepsin L, 5.8 µM at Cathepsin K and 26 µM on Papain.
Turning to `CC(C)(C)OC(=O)N[C@@H](CCc1ccccc1)C(=O)NCC#N`, the Ki on Cathepsin S was determined as 1.9 µM; on Procathepsin L it was 9.4 µM; at Cathepsin K, 8.5 µM; at Papain it was 12 µM.
The corresponding values for `CC(C)(C)OC(=O)N[C@@H](Cc1cccs1)C(=O)NCC#N` are 0.27 µM, 1.6 µM, 1.2 µM and 0.19 µM.
The corresponding values for `CC(C)(C)OC(=O)N[C@@H](Cc1ccsc1)C(=O)NCC#N` are 0.76 µM, 4.5 µM, 2.1 µM and 0.57 µM.
